Measured values as given in article PMC9927457 (Microbiology Spectrum, 2023).
Converted amounts (≈) assume the structure as drawn.

Experiments:
[1] = tested on: HepG2 cells; assay: HepG2 cytotoxicity; type: cell-based, human; conditions: Homo sapiens, HepG2, 72 h, 3 days exposure, CellTiter-Glo
Method: HepG2 cells were used to measure eukaryotic cytotoxicity. Viability of HepG2 was measured using CellTiter-Glo reagent (Promega) after 3 days of exposure to compounds. […] Staurosporine controls (maximum inhibition) and a staurosporine dose response were included on every plate.

[2] = tested on: nonreplicating M. tuberculosis; assay: Kill kinetics, nonreplicating (nutrient starved) bacteria; type: cell-based, Mycobacterium tuberculosis; conditions: nutrient starvation, PBS-tyloxapol
[3] = target: SPase activity in M. tuberculosis H37Rv cell membrane fractions (Mycobacterium tuberculosis, UniProt P9WKA1); assay: Inhibition of secretion (SPase activity) in membrane fractions; type: biochemical; conditions: fluorogenic peptide substrate 2 μM; 4 h, 37 °C
Chain of SPase activity in M. tuberculosis H37Rv cell membrane fractions (P9WKA1 whole entry): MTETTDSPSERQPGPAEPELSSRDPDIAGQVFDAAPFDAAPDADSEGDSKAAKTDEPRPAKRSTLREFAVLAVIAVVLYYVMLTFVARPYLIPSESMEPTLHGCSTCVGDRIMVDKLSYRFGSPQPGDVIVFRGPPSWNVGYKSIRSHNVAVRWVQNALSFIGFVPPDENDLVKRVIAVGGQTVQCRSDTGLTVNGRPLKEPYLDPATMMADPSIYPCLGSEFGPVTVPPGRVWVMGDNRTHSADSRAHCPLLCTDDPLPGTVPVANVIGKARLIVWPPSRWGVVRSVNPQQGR

[4] = target: CYP3A4 (Homo sapiens, UniProt P08684); assay: Cytochrome P450 inhibition; type: in vitro ADME; conditions: liver microsomes
Chain of CYP3A4 (P08684 2-503): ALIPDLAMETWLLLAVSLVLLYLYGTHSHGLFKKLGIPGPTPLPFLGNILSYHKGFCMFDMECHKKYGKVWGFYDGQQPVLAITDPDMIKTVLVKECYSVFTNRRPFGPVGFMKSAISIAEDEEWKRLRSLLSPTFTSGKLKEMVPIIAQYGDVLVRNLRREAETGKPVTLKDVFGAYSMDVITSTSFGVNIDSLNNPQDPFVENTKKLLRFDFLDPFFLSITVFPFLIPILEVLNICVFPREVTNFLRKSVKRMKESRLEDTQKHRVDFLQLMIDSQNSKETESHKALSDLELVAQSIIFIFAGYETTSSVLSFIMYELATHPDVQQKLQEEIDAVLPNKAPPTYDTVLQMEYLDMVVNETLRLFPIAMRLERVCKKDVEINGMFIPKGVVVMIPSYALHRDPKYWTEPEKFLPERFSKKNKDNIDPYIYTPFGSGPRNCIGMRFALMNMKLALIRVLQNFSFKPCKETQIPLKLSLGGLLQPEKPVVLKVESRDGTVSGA
Method: Table S4. Inhibition of cytochrome P450s.
Compounds were tested for inhibition of P450s using the enzyme substrate pairs and conditions noted. IC50s (µM) were calculated. Control P450 inhibitors were included for each isoform.
For each compound, the analytical method was developed as follows. Analyte signal was optimized for each compound by ESI positive or negative ionization mode. An MS2 scan or an SIM scan was used to optimize fragmenter voltage and a product ion analysis was used to identify the best fragment for analysis. The collision energy was optimized using a product ion or MRM scan. An ionization ranking was assigned indicating the compound’s ease of ionization. Samples […]
1200 HPLC and a CTC PAL chilled autosampler, all controlled by MassHunter software (Agilent).
After separation on a C18 reverse phase HPLC column (Agilent Zorbax StableBond 3.5µm, 2.1 x 30 mm) using an acetonitrile -water gradient system, peaks were analyzed by mass spectrometry (MS) using ESI ionization in MRM mode.
(1 picture or pasted object on this page, not shown here)
Serial dilutions of a 10 mM stock solution were prepared in acetonitrile:DMSO (9:1). The final DMSO concentration was < 0.2%. Compounds were incubated with human liver microsomes in the presence of 2 mM NADPH in 100 mM potassium phosphate (pH 7.4) containing 5 mM magnesium chloride and a probe substrate, in a 200 µl assay final volume in duplicate. The probe substrate concentrations including bupropion (CYP2B6), amodiaquine (CYP2C8), tolbutamide (CYP2C9), mephenytoin (CYP2C19), dextromethorphan (CYP2D6) and midazolam/testosterone […]
After incubation at 37 °C, reactions were terminated by addition of methanol containing internal standard (propranolol) for analytical quantification. The quenched samples were kept on ice for 10 min and centrifuged at 4 °C for 10 min. The supernatant was removed and the probe substrate metabolite was analyzed by LC-MS/MS (Agilent Technologies Triple Quad LC/MS). A decrease in the formation of the metabolite compared to vehicle control

[5] = Plasma protein binding (Rapid Equilibrium Dialysis); type: in vitro ADME, human; conditions: human; for fraction unbound at 4 h, 5 µM: plasma
Method: Molecule fraction fraction Post-Assay
Table S5. Plasma protein binding
Protein binding was measured in human plasma using Rapid Equilibrium Dialysis (RED) devices (Pierce) according to the manufacturers’ instructions; 5 µM compounds in plasma were dialysed against PBS for 4 h at 37C. Compounds were detected by LC-MS/MS in plasma and PBS

[6] = tested on: M. tuberculosis wild-type strain; assay: MIC against wild-type M. tuberculosis; type: cell-based, Mycobacterium tuberculosis; conditions: concentration required to inhibit growth by 90%, 5 days culture
[7] = tested on: M. tuberculosis strain under expressing LepB (LepB-UE); assay: microbe, parasite or virus in culture; type: cell-based, Mycobacterium tuberculosis
[8] = Mean plasma fraction Unbound Fuplasma

Row | Compound | IC50 [1] [µM] | concentration giving sterilization of nonreplicating organisms [2] [µM] | IC50 [3] [µM] | IC50 at 10 min ([4]; pH 7.4, probe midazolam) [µM] | IC50 at 10 min ([4]; pH 7.4, probe testosterone) [µM] | recovery at 4 h, 5 µM [5] [%] | fraction unbound at 4 h, 5 µM ([5]; Mean plasma fraction Bound) | fraction unbound at 4 h, 5 µM [5, 8] | MIC ([6]; Mycobacterium tuberculosis, 120 h, read-out: MIC Wild type) [µM] | MIC Wild type [6] [µM] | MIC LepB-UE [7] [µM] | MIC ([7]; Mycobacterium tuberculosis, 120 h) [µM]
1 | CCCCNC(=S)Nc1nc2ccccc2s1 [Molecule 1, 1-(benzo[d]thiazol-2-yl)-3-butylthiourea] | 26 ± 12 | 20 | > 200 | > 20 | > 20 | 84.3 | 0.001 | 0.001 |  |  |  | 
2 | CCCCNC(=S)Nc1nc(C)co1 [Molecule 21, 1-butyl-3-(4-methyloxazol-2-yl)thiourea] | 42 ± 12 |  |  | > 20 | 11.9 | 83.9 | 0.037 | 0.037 | 10 (≈ 2.13 µg/mL) | 10 ± 2.0 (≈ 2.13 µg/mL) | 8.4 ± 3.4 (≈ 1.79 µg/mL) | 8 to 9 (≈ 1.71 to 1.92 µg/mL)
